Results on 70 molecules are retold here after patent US20130210167A1, “IMMUNOASSAY FOR PYRROLIDINOPHENONES” (RANDOX LABORATORIES LIMITED, priority 2012, published 2013).

For the assay, the system named is polyclonal antibody raised to Immunogen IV. Description: Competitive biochip immunoassay of pyrrolidinophenones and potential cross-reactants (Evidence Investigator). It counts as binding, sheep.
Setting [1] is: Table 2, further cross-reactivity results, competition with Hapten-A HRP conjugate.

Structures can show the parent of a compound that is named as a salt. Where two headings read alike, the source gives them in different places.

Take `CCC(C(=O)c1ccc2c(c1)OCO2)N1CCCC1` (racemic) [(RS)-1-(Benzo[d][1,3]dioxol-5-yl)-2-(pyrrolidin-1-yl)butanone HCl]: the “% Cross-Reactivity” value came to 192%.

As to `CCOC(=O)C1(c2ccccc2)CCNCC1` [Normeperidine], the “% Cross-reactivity” value is reported as <1%.

As to `CCC(=O)C(CC(C)N(C)C)(c1ccccc1)c1ccccc1` (stereo not shown) [Methadone], the “% Cross-reactivity” value is on record as <1%.

`COc1ccc2c3c1O[C@H]1C(=O)CC[C@@]4(O)[C@@H](C2)N(C)CC[C@]314` [Oxycodone]: the “% Cross-reactivity” value was <1%.

Turning to `CN1C(=O)CN=C(c2ccccc2F)c2cc(N)ccc21` [7-NH Flunitrazepam], the “% Cross-reactivity” value is reported as <1%.

For `O=C(O)c1c[nH]c2ccccc12` [Indole-3-carboxylic acid], the “% Cross-reactivity” value under setting [1] is reported as <1%.

As to `Cc1ccc(C(=O)C(C)N)cc1.Cl` (stereo not shown) [Nor-mephedrone HCl], the “% Cross-reactivity” value is recorded as <1%.

With `C[C@H](N)Cc1ccccc1` [D-Amphetamine], the “% Cross-Reactivity” value is <1%.

Turning to `CC(C(=O)c1ccc2c(c1)OCO2)N1CCCC1.Cl` (racemic) [(RS)-1-(Benzo[d][1,3]dioxol-5-yl)-2-(pyrrolidin-1-yl)propanone HCl], the “% Cross-Reactivity” value was determined as 12%.

Regarding `Cc1ccccc1-n1c(C)nc2ccccc2c1=O` [Methaqualone], the “% Cross-reactivity” value was <1%.

Consider `O=C(O)[C@H]1O[C@@H](OCC(Cl)(Cl)Cl)[C@H](O)[C@@H](O)[C@@H]1O` [Urochloralic acid], for which the “% Cross-reactivity” value under setting [1] is on record as <1%.

On to `CN[C@@H](C)Cc1ccccc1` [Methamphetamine HCl], for which the “% Cross-Reactivity” value was <1%.

For `CC(=O)Oc1ccc2c3c1O[C@H]1[C@@H](OC(C)=O)C=C[C@H]4[C@@H](C2)N(C)CC[C@@]341` [Heroin], the “% Cross-reactivity” value is reported as <1%.

For `CCN(CC)C(C)C(=O)c1ccccc1` (stereo not shown) [Diethylpropion HCl], the “% Cross-reactivity” value is <1%.

Regarding `CC(=O)Nc1ccc(O)cc1` [Acetaminophen], the “% Cross-reactivity” value was <1%.

For (−)-11-nor-9-Carboxy-delta9-THC, the “% Cross-reactivity” value is given as <1%.

Regarding `O=C(O)c1ccccc1O` [Salicylic acid], the “% Cross-reactivity” value is recorded as <1%.

As to `CNC(C)C(=O)c1ccc2c(c1)OCO2` (stereo not shown) [Methylone HCl], the “% Cross-reactivity” value is reported as <1%.

In the case of `CCCC(NC)C(=O)c1ccccc1.Cl` (stereo not shown) [Pentedrone HCl], the “% Cross-reactivity” value was <1%.

On to `CN1CCCC1c1cccnc1` (single isomer, unassigned; (-)) [(−)-Nicotine], for which the “% Cross-reactivity” value is recorded as <1%.

Take `CN1CCN(Cc2ccccc2)CC1.Cl.O` [1-Benzyl-4-methylpiperazine HCl monohydrate]: the “% Cross-reactivity” value is reported as <1%.

For `CCCC(C(=O)c1ccc2c(c1)OCO2)N1CCCC1.Cl` (racemic) [(RS)-1-(Benzo[d][1,3]dioxol-5-yl)-2-(pyrrolidin-1-yl)pentanone HCl], the “% Cross-Reactivity” value came out at 100% and the “% Cross-reactivity” value came out at 100%.

Turning to `CNC(C)C(=O)c1ccc(F)cc1.Cl` (stereo not shown) [Flephedrone HCl], the “% Cross-reactivity” value was <1%.

Take `Oc1ccccc1O` [1,2 Dihydroxybenzene (Catechol), 1,2 Dihydroxybenzene]: the “% Cross-reactivity” value was <1%.

Turning to `CNC(C)Cc1ccc2c(c1)OCO2` (racemic) [(RS)-1-(Benzo[d][1,3]dioxol-5-yl)-N-methylpropan-2-amine], the “% Cross-Reactivity” value is <1%.

For the molecule `COC(=O)[C@@H]1C[C@H](OC(C)=O)C(=O)[C@H]2[C@@]1(C)CC[C@H]1C(=O)O[C@H](c3ccoc3)C[C@]21C` [Salvinorin A], the “% Cross-Reactivity” value is reported as <1%.

Consider `CCC(C(=O)c1ccc(C)cc1)N1CCCC1.Cl` (racemic) [(RS)-1-(4-Methylphenyl)-2-(pyrrolidin-l-yl)butanone HCl], for which the “% Cross-Reactivity” value amounted to 34%.

For `c1ccc(CN2CCNCC2)cc1` [1-Benzylpiperazine], the “% Cross-Reactivity” value is <1%.

As to (−)-Delta9-THC, the “% Cross-reactivity” value is given as <1%.

As for `COc1cc(CCN)cc(OC)c1OC` [Mescaline HCl], the “% Cross-Reactivity” value is reported as <1%.

In the case of `COc1ccc2c3c1O[C@H]1C(=O)CC[C@H]4[C@@H](C2)N(C)CC[C@]314` [Hydrocodone], the “% Cross-reactivity” value was <1%.

Take `COc1cccc(C2(O)CCCCC2CN(C)C)c1` (stereo not shown) [Tramadol HCl]: the “% Cross-reactivity” value is <1%.

In the case of `CN[C@H]1CC[C@@H](c2ccc(Cl)c(Cl)c2)c2ccccc21` [Sertraline HCl], the “% Cross-reactivity” value is given as <1%.

As to `CCC(=O)OC(Cc1ccccc1)(c1ccccc1)C(C)CNC.O=C(O)/C=C\C(=O)O` (single isomer, unassigned; (+)) [(+)-Norpropoxyphene maleate], the “% Cross-reactivity” value is <1%.

In the case of `CCN(CC)C(=O)[C@@H]1C=C2c3cccc4[nH]cc(c34)C[C@H]2N(C)C1` [LSD], the “% Cross-reactivity” value is <1%.

For the molecule `CCCC(C(=O)c1ccc2ccccc2c1)N1CCCC1.Cl` (racemic) [(RS)-1-(2-Naphthyl)-2-(pyrrolidin-l-yl)pentanone HCl], the “% Cross-Reactivity” value worked out at 44%.

Take `CCCCC(C(=O)c1ccc(C)cc1)N1CCCC1.Cl` (racemic) [(RS)-1-(4-Methylphenyl)-2-(pyrrolidin-1-yl)hexanone HCl]: the “% Cross-reactivity” value was determined as 48.4%.

With `O=C(CCCN1CCC(O)(c2ccc(Cl)cc2)CC1)c1ccc(F)cc1` [Haloperidol], the “% Cross-reactivity” value is <1%.

For the molecule `CCCC(C)(COC(N)=O)COC(N)=O` [Meprobamate], the “% Cross-reactivity” value is recorded as <1%.

On to `CNC(C)C(=O)c1ccc(C)cc1` (stereo not shown) [Mephedrone HCl], for which the “% Cross-Reactivity” value is <1%.

With Dihydroxymephedrone HCl, the “% Cross-reactivity” value is recorded as <1%.

For the molecule `CCCCCn1cc(C(=O)c2cccc3ccccc23)c2ccccc21` [JWH-018], the “% Cross-Reactivity” value is given as <1%.

Consider `COc1cc(CC(C)N)cc(OC)c1OC.Cl` (racemic) [(+/−)-3,4,5-Trimethoxyamphetamine hydrochloride], for which the “% Cross-reactivity” value is reported as <1%.

Take Prolatine: the “% Cross-reactivity” value is <1%.

Consider `CCO[C@@H]1O[C@H](C(=O)O)[C@@H](O)[C@H](O)[C@H]1O` [Ethyl-glucuronide], for which the “% Cross-reactivity” value is on record as <1%.

As to `C=CCN(CC=C)CCc1c[nH]c2ccc(OC)cc12` [N,N-diallyl-5-methoxytryptamine], the “% Cross-reactivity” value was <1%.

Turning to `CNCCC(Oc1ccc(C(F)(F)F)cc1)c1ccccc1` (stereo not shown) [Fluoxetine HCl], the “% Cross-reactivity” value was <1%.

As to `CC(C)Cc1ccc(C(C)C(=O)O)cc1` (stereo not shown) [Ibuprofen], the “% Cross-reactivity” value is listed as <1%.

In the case of `Cc1ccc(-c2nc3ccc(C)cn3c2CC(=O)N(C)C)cc1` [Zolpidem tartrate], the “% Cross-reactivity” value is <1%.

Turning to `NCCc1ccccc1.O=S(=O)(O)O` [Phenethylamine sulphate], the “% Cross-reactivity” value is listed as <1%.

In the case of `Cl.c1ccc(C2(N3CCCCC3)CCCCC2)cc1` [1-(1-phenylcyclohexyl)piperidine) HCl], the “% Cross-reactivity” value was <1%.

In the case of `COc1ccc2c(c1)[C@]13CCCC[C@@H]1[C@H](C2)N(C)CC3` [Dextromethorphan hydrobromide monohydrate], the “% Cross-reactivity” value is <1%.

For the molecule `CC(NC(C)(C)C)C(=O)c1cccc(Cl)c1` (stereo not shown) [Bupropion HCl], the “% Cross-reactivity” value is on record as <1%.

As for `CCCC(C(=O)c1ccc(C)cc1)N1CCCC1` (racemic) [Pyrovalerone HCl, (RS)-1-(4-methylphenyl)-2-(1-pyrrolidinyl)pentan-1-one], the “% Cross-reactivity” value turned out to be 44.4%.

For the molecule `CCC(NC)C(=O)c1ccc2c(c1)OCO2.Cl` (stereo not shown) [Butylone HCl], the “% Cross-reactivity” value worked out at 11.4% and the “binding of antibodies of the invention (in words)” value is “able to bind”.

As for `COC(=O)C(c1ccccc1)C1CCCCN1` (stereo not shown) [Methylphenidate HCl], the “% Cross-reactivity” value is on record as <1%.

Consider `CCN(C(C)=O)c1cccc(-c2ccnc3c(C#N)cnn23)c1` [Zaleplon], for which the “% Cross-reactivity” value is listed as <1%.

As for `CCCC(NC)C(=O)c1ccc2c(c1)OCO2.Cl` (stereo not shown) [Pentylone HCl], the “% Cross-reactivity” value is on record as 17.4% and the “binding of antibodies of the invention (in words)” value is “able to bind”.

For the molecule `CNCCC=C1c2ccccc2CCc2ccccc21` [Nortriptyline HCl], the “% Cross-reactivity” value is recorded as <1%.

For the molecule `O=C(CN1CCCC1)c1ccccc1` [1-Phenyl-2(1-pyrrolidinyl)ethanone], the “% Cross-reactivity” value under setting [1] is <1%.

Regarding `CCCCCn1cc(C(=O)Cc2ccccc2OC)c2ccccc21` [JWH-250], the “% Cross-Reactivity” value is recorded as <1%.

Turning to `CN[C@@H](C)[C@@H](O)c1ccccc1.Cl` [(+)-Pseudoephedrine HCl], the “% Cross-Reactivity” value is listed as <1%.

Regarding `O=C1Nc2ccc(Cl)cc2C(c2ccccc2Cl)=NC1O` (stereo not shown) [Lorazepam], the “% Cross-reactivity” value is listed as <1%.

`CC(N)Cc1ccc2c(c1)OCO2` (racemic) [(RS)-1-(benzo[d][1,3]dioxol-5-yl)propan-2-amine]: the “% Cross-Reactivity” value is <1%.

Turning to `CN1C(=O)CC[C@H]1c1cccnc1` [(−)-Cotinine], the “% Cross-reactivity” value is on record as <1%.

Turning to `Cl.Clc1cccc(N2CCNCC2)c1` [1-(3-Chlorophenyl)piperazine HCl], the “% Cross-Reactivity” value is <1%.

On to `Cl.NC1(c2ccccc2Cl)CCCCC1=O` (racemic) [(±)-Norketamine HCl], for which the “% Cross-reactivity” value is on record as <1%.

`CNCCCC1(c2ccc(F)cc2)OCc2cc(C#N)ccc21` (stereo not shown) [Norescitalopram]: the “% Cross-reactivity” value was <1%.

With `Cl.O=c1n(CCCN2CCN(c3cccc(Cl)c3)CC2)nc2ccccn12` [Trazadone HCl], the “% Cross-reactivity” value was <1%.

For `CN1CCN(C(=O)OC2c3nccnc3C(=O)N2c2ccc(Cl)cn2)CC1` (stereo not shown) [Zopiclone], the “% Cross-reactivity” value is given as <1%.
